Laboratory results: PubChem BioAssay AID504553 (Southern Research Specialized Biocontainment Screening …, 2011)

The compounds below were run on MAGI-CCR5 cells, HIV-1 Ba-L, beta-gal luminescence, 48 h (assay: inhibitors of R5 HIV-1 replication in MAGI cells – MAGI-CCR5 cells, HIV-1 Ba-L, 2% serum, set 4, dose response (AID 504553)).
Cc1c2c(=O)n(-c3nc4ccccc4s3)nc-2cc(O)n1Cc1ccncc1 showed an IC50 of 9.51 µM. With Cc1c2c(=O)n(-c3nc4ccccc4s3)nc-2cc(O)n1Cc1ccccc1 the IC50 was 9.28 µM. COc1ccc(Cn2c(O)cc3nn(-c4nc5ccccc5s4)c(=O)c-3c2C)cc1 gave an IC50 of 29.2 µM. Cc1c2c(=O)n(-c3nc4ccccc4s3)nc-2cc(O)n1Cc1ccccc1Cl was tested, and the IC50 was 3.39 µM. Cc1c2c(=O)n(-c3nc4ccccc4s3)nc-2cc(O)n1Cc1ccc(F)cc1 showed an IC50 of 3.53 µM. Work on Cc1c2c(=O)n(-c3nc4ccccc4s3)nc-2cc(O)n1Cc1cccnc1 yielded an IC50 of 6.07 µM. With Cc1c2c(=O)n(-c3nc4ccccc4s3)nc-2cc(O)n1CCc1cccs1 the IC50 was 19 µM. With Cc1c2c(=O)n(-c3nc4ccccc4s3)nc-2cc(O)n1Cc1cccs1 the IC50 was 7.43 µM. Work on COc1ccccc1Cn1c(O)cc2nn(-c3nc4ccccc4s3)c(=O)c-2c1C yielded an IC50 of 19.6 µM. Cc1c2c(=O)n(-c3nc4ccccc4s3)nc-2cc(O)n1CCc1ccc(O)cc1 gave an IC50 of 23 µM. COc1ccc(CCn2c(O)cc3nn(-c4nc5ccccc5s4)c(=O)c-3c2C)cc1 gave an IC50 of 4.64 µM. Cc1c2c(=O)n(-c3nc4ccccc4s3)nc-2cc(O)n1C1CC1 was tested, and the IC50 was 6.99 µM. Cc1c2c(=O)n(-c3nc4ccccc4s3)nc-2cc(O)n1CCC(C)C was tested, and the IC50 was 9.35 µM.
